Experimental data as given in US20190218531A1 (priority 2018, published 2019).

System: B. subtilis 3610
Assay type: cell-based, Bacillus subtilis

Compound: CN(C)C(=O)Nc1ccc(Cl)c(Cl)c1 [DCMU, 3-(3,4-dichlorophenyl)-1,1-dimethylurea]
- effect on inhibition of B. subtilis growth in co-culture with S. elongatus: mitigated

Compound: O=S(O)(O)=S [thiosulfate]
- effect on inhibition of B. subtilis growth in co-culture with S. elongatus: mitigated
